The values below come from ChEMBL document CHEMBL1201862, “PubChem BioAssay data set” (2004).

Test systems include CCRF-CEM; COLO 205; HCT-116; HOP-62; MOLT-4; NCI-H226; NCI-H23; NCI-H460; OVCAR-3; OVCAR-5; OVCAR-8; RPMI-8226; RXF 393; SF-268; SK-MEL-28; SK-MEL-5; UACC-257; SF-539; SN12C.
Common to all, as to assay: NCI anticancer screen, dose series, 48 h

SMILES strings stand for the structures.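 Method: 48-hour compound exposure of cells in 96-well plates, five concentrations, linear interpolation of endpoints. Here, GI50 denotes the concentration required for 50% inhibition of growth.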 Calls of active or inactive are those of the source. Cut-off read from the data, not from the text of the source: active = GI50 up to about 1.1 µM and inactive = higher.

As to `Cc1ccc([S+]([O-])C[C@](NC(=O)OCc2ccccc2)(Sc2ccccc2)C(F)F)cc1` (stereo partly drawn), the GI50 was 1.11 µM (active) with CCRF-CEM; 19.4 µM (inactive) with COLO 205; 16.3 µM (inactive) in the assay on HCT-116; 35.8 µM (inactive) in the assay on HOP-62; 3.4 µM (inactive) with MOLT-4; 12.9 µM (inactive) with NCI-H226. The GI50 with NCI-H23 is 17.7 µM (inactive); in the assay on NCI-H460, 17.9 µM (inactive); with OVCAR-3 it was 24.3 µM (inactive); in the assay on OVCAR-5, 31.6 µM (inactive); with OVCAR-8, 19.1 µM (inactive); in the assay with RPMI-8226, 10.4 µM (inactive). For the same compound, the GI50 in the assay on RXF 393 is 21.7 µM (inactive); in the assay with SF-268, 16.9 µM (inactive); with SK-MEL-28, 18 µM (inactive); in the assay with SK-MEL-5, 13.3 µM (inactive); in the assay with UACC-257, 15 µM (inactive).

`CC(Br)CN1CCOCC1` (stereo not drawn): the GI50 with COLO 205, in the assay on HCT-116, with HOP-62, in the assay with NCI-H226, in the assay with NCI-H23 and with NCI-H460 was > 100 µM (inactive) throughout. In addition, the GI50 in the assay on OVCAR-3, in the assay on OVCAR-5, in the assay with OVCAR-8, in the assay on RPMI-8226, with RXF 393 and in the assay with SF-268 was > 100 µM (inactive) in each case. The GI50 in the assay on SF-539, with SK-MEL-28, with SK-MEL-5, in the assay on SN12C and in the assay with UACC-257 was > 100 µM (inactive) throughout.

For `COc1ccc2c(c1)C/C(=C\c1cccc3ccccc13)C2=O`, the GI50 in the assay on CCRF-CEM is 2.65 µM (inactive); in the assay with MOLT-4 it was 4.89 µM (inactive); in the assay on NCI-H226, 10.5 µM (inactive); with NCI-H23, 2.84 µM (inactive); in the assay with NCI-H460 it was 4.99 µM (inactive); in the assay on OVCAR-3, 13.4 µM (inactive). Besides, the GI50 with OVCAR-5 was 94 µM (inactive); in the assay on OVCAR-8, 21.7 µM (inactive); in the assay with RPMI-8226 it was 25.3 µM (inactive); in the assay with RXF 393, 0.0902 µM (active); in the assay with SF-268, 18.4 µM (inactive); with SF-539 it was 7.33 µM (inactive). The GI50 with SK-MEL-28 was 3.93 µM (inactive); in the assay on SK-MEL-5, 4.05 µM (inactive); in the assay with SN12C it was 8.87 µM (inactive).

Turning to `C=CCOCCCC(=O)C(=[N+]=[N-])C(=O)OC`, the GI50 with CCRF-CEM, in the assay on COLO 205, in the assay with HCT-116, with MOLT-4, in the assay with NCI-H226 and with NCI-H23 was > 100 µM (inactive) each time. Also, the GI50 in the assay with NCI-H460, in the assay on OVCAR-3, in the assay on OVCAR-5, in the assay on OVCAR-8, with RPMI-8226 and in the assay on RXF 393 was > 100 µM (inactive) throughout. For the same compound, the GI50 in the assay on SF-268, in the assay with SF-539, in the assay on SK-MEL-28, in the assay with SK-MEL-5, in the assay with SN12C and in the assay on UACC-257 was > 100 µM (inactive) each time.

In the case of `CCCCCCCCCCCCOC(=S)NC`, the GI50 is 33.4 µM (inactive) with CCRF-CEM; 16.9 µM (inactive) with HCT-116; 22.2 µM (inactive) in the assay on HOP-62; 13.1 µM (inactive) in the assay with MOLT-4; 4.25 µM (inactive) in the assay with NCI-H226; 20.4 µM (inactive) with NCI-H23. The GI50 in the assay with NCI-H460 was 18.5 µM (inactive); with OVCAR-5, 12.6 µM (inactive); in the assay with OVCAR-8, 18.6 µM (inactive); in the assay with RPMI-8226, 16.9 µM (inactive); in the assay on RXF 393, 16.6 µM (inactive); in the assay with SF-268 it was 20.2 µM (inactive). Further, the GI50 in the assay with SF-539 is 18.2 µM (inactive); in the assay on SK-MEL-28, 20 µM (inactive); in the assay with SN12C, 17.7 µM (inactive); in the assay with UACC-257, 20.3 µM (inactive).
